Like-named read-outs stand apart in the source and are kept apart here.
What was measured:
Aspergillus niger = test: Fungal growth inhibition assay (hyphal growth diameter on PDA); assay type: cell-based; conditions: for IC50: Aspergillus niger
Magnaporthe oryzae = test: microbe, parasite or virus in culture; assay type: cell-based; conditions: for Average diameter of fungal growth: Cu—Zn#12 0%, plug subtracted
Ustilago maydis = test: Fungal growth inhibition assay (hyphal growth diameter on PDA); assay type: cell-based; conditions: for IC50: Mycosarcoma maydis
[1] = test system: Pseudomonas syringae (pv. tomato DC3000); test: Bacterial microplate culture (resazurin MIC); assay type: cell-based; conditions: Pseudomonas syringae; 24 hours at 28° C.; highest concentration 400 mg/L (1% of stock solutions); read-out: MIC
Rhizoctonia solani = test: Fungal growth inhibition assay (hyphal growth diameter on PDA); assay type: cell-based; conditions: for IC50: Rhizoctonia solani
[2] = test system: Mycosphaerella graminicola; test: as above; assay type: cell-based
Experimental: The fungal strains used in these studies are described in TABLE 2. The strains were routinely cultured in 9 centimeter Petri dishes containing 10 milliliters of potato dextrose agar (PDA) at room temperature (22° C.) apart from U. maydis (28° C.).
(§1) To assess the effects of compositions on fungal growth, 10 microliters of the test compositions diluted in sterile distilled water were placed in the wells of a 12-well tissue culture plate and 1 milliliter of liquid PDA was added by pipette to each well. Where multiple samples were added to each well, the 10 microliter drops were kept separate until they were mixed by the addition of hot liquid PDA and the plate was then agitated to evenly distribute the test composition(s) evenly through the agar (distilled water was used as vehicle control) and then the agar was allowed to set. […] To assess the effects of compositions on fungal growth in all experiments, the diameter of the hyphal growth was measured twice at a 90° angle using a ruler and the average diameter in millimeters was calculated. If no fungal growth could be detected by eye, the cultures were observed by phase microscopy (40×) to confirm that there was no growth (NG).

[3] = test system: Xanthomonas oryzae (strain Gx0372); test: microbe, parasite or virus in culture; assay type: cell-based; conditions: Xanthomonas oryzae, 24 h
Alternaria alternata = test: Fungal growth inhibition assay (hyphal growth diameter on PDA); assay type: cell-based; conditions: for IC50: Alternaria alternata
Fusarium graminearum = test: microbe, parasite or virus in culture; assay type: cell-based; conditions: for IC50: Fusarium graminearum
Botrytis cinerea = test: Fungal growth inhibition assay (hyphal growth diameter on PDA); assay type: cell-based; conditions: for IC50: Botrytis cinerea
plant pathogenic fungi = test: organism not typed; assay type: cell-based; conditions: for fungal growth with KS: 1000 milligrams/liter KS
[4] = test system: Ralstonia solanacearum (strain PSS4 from tomato); test: microbe, parasite or virus in culture; assay type: cell-based; conditions: Ralstonia solanacearum, 24 h
Trichophyton rubrum = test: Fungal growth inhibition assay with Trichophyton rubrum; assay type: cell-based
Experimental: as §1, with “set. For most strains (see TABLE 2), plugs of agar containing fungal hyphae (2 to 3 millimeters in diameter) from the edge of an established fungal culture were carefully cut out using a scalpel and inserted into holes cut in the centre of the agar in each well of the 12-well plate. With B. cinerea and U. maydis, mature cultures were washed with 3 ml of sterile distilled water and the spore suspensions obtained were adjusted to O.D. (at 600 nanometers) of 1.0 and 1.5, respectively. A small hole (˜1 millimeter) was made in the center of the PDA in each well with a yellow pipette tip and 1.5 microliters of spore suspension was carefully pipetted into the hole.” for “set.”
A clinical isolate of T. rubrum (strain 7107996; Phylum: Acomycota) was kindly provided by Dr. Richard Barton, Leeds University, UK. The growth assays with T. rubrum were as described in EXAMPLE 1, except this strain was cultured at 33° C. on PDA for 6 or 7 days when growth was assessed. T. rubrum cultures were maintained on Sabouraud dextrose agar at 33° C.
FIG. 8 is a graph depicting the effects of selected compositions and compounds on the growth of Trichophyton rubrum. The culture period was 7 days. Growth in the control cultures was 20±0 millimeters (mean±SD for 2 experiments).

[5] = test system: Xanthomonas campestris (strain Race 5 from brassica); test: Bacterial microplate culture (resazurin MIC); assay type: cell-based; conditions: Xanthomonas campestris; 24 hours at 28° C.; highest concentration 400 mg/L (1% of stock solutions); read-out: MIC
[6] = test system: 4 plant pathogenic bacterial strains; conditions: KS at ≧10,000 milligrams/liter, any strain
[7] = read-out: Potassium sorbate IC50, mean ± SD, PDA
[8] = read-out: Potassium sorbate IC50, single experiments, PDA

In the case of `C/C=C/C=C/C(=O)[O-].[K+]` [Potassium sorbate], the IC50 (Aspergillus niger; [7]) is reported as 91 µg/mL, the IC50 (Aspergillus niger; [8]) is reported as 82 µg/mL and the “Potassium sorbate IC50, single experiments” value (“Potassium sorbate IC50” below) (Aspergillus niger; PDA) is reported as 100 µg/mL. The “Minimum KS concentration required for NG” value (Aspergillus niger; PDA, NG = no fungal growth) was 300 mg/L, the “Average diameter of fungal growth” value (Magnaporthe oryzae; KS 10 mg/L, PDA) was 17 mm and the “Average diameter of fungal growth” value (Magnaporthe oryzae; KS 30 mg/L, PDA) was 17 mm. The “Average diameter of fungal growth” value (Magnaporthe oryzae; KS 100 mg/L, PDA) was 15 mm, the “Average diameter of fungal growth” value (Magnaporthe oryzae; KS 150 mg/L, PDA) was 14 mm and the “Average diameter of fungal growth” value (Magnaporthe oryzae; KS 300 mg/L, PDA) was 9 mm. For the same molecule, the “effect on fungal growth alone” value (Magnaporthe oryzae; KS 10 milligrams/liter alone) was “no effect”, the “Minimum KS concentration required for NG” value (Magnaporthe oryzae; PDA, NG = no fungal growth) was 1000 mg/L and the IC50 (Magnaporthe oryzae; Pyricularia oryzae, read-out: Potassium sorbate IC50, mean ± SD, PDA) was 140 µg/mL. For the same molecule, the “KS concentration that completely inhibited growth” value (Magnaporthe oryzae; in the presence of […] Cu—Zn#12) was 30 milligrams/liter, the “times lower KS concentration for complete inhibition” value (Magnaporthe oryzae; with […] Cu—Zn#12 versus KS alone) was 33 times and the IC50 (Ustilago maydis; read-out: KS IC50, PDA) was 0.077 µg/mL. The IC50 (Ustilago maydis; [7]) was 77 µg/mL, the IC50 (Ustilago maydis; [8]) was 74 µg/mL and the “Potassium sorbate IC50” value (Ustilago maydis; PDA) was 80 µg/mL. For the same molecule, the “Minimum KS concentration required for NG” value (Ustilago maydis; PDA, NG = no fungal growth) was 300 mg/L, the MIC [1] was > 10000 µg/mL and the “Potassium sorbate IC50” value (Rhizoctonia solani; PDA) was 100 µg/mL. For the same molecule, the “Minimum KS concentration required for NG” value (Rhizoctonia solani; PDA, NG = no fungal growth) was 1000 mg/L, the IC50 (Rhizoctonia solani; [7]) was 91 µg/mL and the IC50 (Rhizoctonia solani; [8]) was 73 µg/mL. The “Minimum KS concentration required for NG” value ([2]; NG = no fungal growth) was 300 mg/L, the IC50 ([2]; Zymoseptoria tritici, read-out: Potassium sorbate IC50, single experiment) was 150 µg/mL and the MIC [3] was > 10000 µg/mL. The IC50 (Alternaria alternata; [7]) was 190 µg/mL, the IC50 (Alternaria alternata; [8]) was 180 µg/mL and the “Potassium sorbate IC50” value (Alternaria alternata; PDA) was 200 µg/mL. The “Minimum KS concentration required for NG” value (Alternaria alternata; PDA, NG = no fungal growth) was 300 mg/L, the IC50 (Fusarium graminearum; [7]) was 185 µg/mL and the IC50 (Fusarium graminearum; [8]) was 150 µg/mL. For the same molecule, the “Potassium sorbate IC50” value (Fusarium graminearum; PDA) was 220 µg/mL, the “Minimum KS concentration required for NG” value (Fusarium graminearum; PDA, NG = no fungal growth) was 1000 mg/L and the IC50 (Botrytis cinerea; [7]) was 175 µg/mL. For the same molecule, the IC50 (Botrytis cinerea; [8]) was 200 µg/mL, the “Potassium sorbate IC50” value (Botrytis cinerea; PDA) was 150 µg/mL and the “Minimum KS concentration required for NG” value (Botrytis cinerea; PDA, NG = no fungal growth) was 1000 mg/L. For the same molecule, the “number of fungal strains whose growth was completely inhibited” value (plant pathogenic fungi; 300 milligrams/liter KS, eight strains tested) was 4 strains, the “fungal growth with KS” value (plant pathogenic fungi; all eight fungal strains) was “completely inhibited” and the “fungal growth with KS” value (plant pathogenic fungi; five fungal strains of FIG. 2) was “no growth”. For the same molecule, the IC50 (plant pathogenic fungi; read-out: KS IC50 range on plant pathogenic fungi) was 77 to 190 µg/mL, the MIC [4] was > 10000 µg/mL and the “inhibition of fungal growth” value (Trichophyton rubrum; KS 100 milligrams/liter on its own) was 6%. The “KS concentration required for complete inhibition of fungal growth” value (Trichophyton rubrum; KS alone (FIG. 9)) was 300 milligrams/liter, the “T. rubrum IC50 values: % of stock solution” value (Trichophyton rubrum; PDA, 33° C., 7 days) was 0.017 % of stock solution and the IC50 (Trichophyton rubrum; Trichophyton rubrum, 168 h, PDA, 33° C., 7 days, Cu—Zn#12: 50% each of elemental copper and zinc, read-out: T. rubrum IC50 values: Concentration) was 17 µg/mL. The MIC [5] was > 10000 µg/mL and the “effect on bacterial growth” value [6] was “no effect”.

Source: patent US20150342195A1, “ANTI-MICROBIAL COMPOSITIONS, PREPARATIONS, METHODS, AND USES” (MYCO SCIENCES LIMITED, priority 2014, published 2015)
